This note sets out measurements from patent US8785477B2, “Hexahydropyrrolo[3,4-b]pyrrole derivatives, preparation methods and pharmaceutical uses thereof” (Shanghai Sun-Sail Pharmaceutical Science & Technology Co., …, priority 2010, dated 2014).

Molecules are shown by their SMILES. Where a name gives a salt, the structure may show the parent alone. Read-outs that look alike come from different tables or passages of the source.

The target of data set [1] is T1, DPPIV (Homo sapiens (Human), UniProt P27487). Kind of data set: DPP-IV-inhibiting activity, fluorescence assay with Ala-Pro-AMC substrate. Type of data set: biochemical. The settings on record: pH7.5, 37° C. The protocol: Determination of DPP-IV-inhibiting activity could be performed by common methods. DPP-IV was pure enzyme expressed by using baculovirus expressing system and purified. […] The reaction system was carried out in buffer of pH7.5 and the substrate was alanine-proline-7-amino-4-methylcoumarin (Ala-Pro-AMC).
T1 sequence (P27487 whole entry): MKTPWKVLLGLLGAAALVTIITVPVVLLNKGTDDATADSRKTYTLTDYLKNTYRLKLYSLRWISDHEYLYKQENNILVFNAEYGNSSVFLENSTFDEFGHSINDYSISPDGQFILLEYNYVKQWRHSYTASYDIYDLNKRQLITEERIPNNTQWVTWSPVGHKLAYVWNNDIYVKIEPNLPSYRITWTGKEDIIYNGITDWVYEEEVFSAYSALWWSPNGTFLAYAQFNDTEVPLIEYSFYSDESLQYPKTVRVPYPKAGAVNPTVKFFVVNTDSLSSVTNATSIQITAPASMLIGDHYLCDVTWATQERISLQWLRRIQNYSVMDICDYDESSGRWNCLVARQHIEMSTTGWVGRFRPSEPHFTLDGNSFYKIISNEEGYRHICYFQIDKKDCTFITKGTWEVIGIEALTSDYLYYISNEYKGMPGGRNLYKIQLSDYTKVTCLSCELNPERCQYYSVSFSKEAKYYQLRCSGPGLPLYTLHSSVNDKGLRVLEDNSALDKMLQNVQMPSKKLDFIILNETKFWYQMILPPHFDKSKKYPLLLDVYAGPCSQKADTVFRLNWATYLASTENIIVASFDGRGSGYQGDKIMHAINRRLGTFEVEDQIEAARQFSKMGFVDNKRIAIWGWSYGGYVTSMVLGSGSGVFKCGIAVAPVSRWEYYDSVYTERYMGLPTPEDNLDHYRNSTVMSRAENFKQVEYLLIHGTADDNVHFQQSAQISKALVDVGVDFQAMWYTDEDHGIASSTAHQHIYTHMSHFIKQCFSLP
DPP-IV could degradate substrate Ala-Pro-AMC to give product AMC. […] The DPP-IV activity could be determined by dynamic detecting the increasing speed of fluorescence value at 460 nm.
Thoroughly mixed test compounds, enzyme and reaction buffer, preincubated the mixture for 15 minutes at 37° C. and then primed reaction by adding substrate, successfully detecting fluorescence value at 460 nm for 5 minutes. […] All final reaction volumes were 100 μL. Each concentration of each sample consisted of parallel wells in triplate.
Firstly, calculated the increment of fluorescence intensity per unit time during the initial speed of enzyme (unit: RFU/sec) which can be used to express initial speed, then calculated activity percentage of sample in each concentration group as follows: Activity %=vsample/vDMSO*100%
Wherein, vsample represents initial speed of sample in each concentration group, vDMSO represents initial speed of DMSO group.
Logarithm concentration was plotted versus activity percentage, and then calculated fitting curve by nonlinear regression from which IC50 value was calculated.

In a further data set the target is DPP9 (Homo sapiens (Human), UniProt Q86TI2). In words: Selectivity panel, recombinant dipeptidase inhibition (fluorescence substrate): DPP9. The data set is classed as biochemical. The note with it: for Selective ratio DPP9/DPPIV: ratio of IC50 values; for IC50: recombinant DPP9. The source says: (§1) The recombinant proteins of DPPIV, DPP8, DPP9 and FAP were expressed by using insect expression system (purchased from Shanghai Jinmai Biotechnology Co. Ltd). The activities of these […] were detected by using fluorescence substrate.
Chain of DPP9 (Q86TI2 whole entry): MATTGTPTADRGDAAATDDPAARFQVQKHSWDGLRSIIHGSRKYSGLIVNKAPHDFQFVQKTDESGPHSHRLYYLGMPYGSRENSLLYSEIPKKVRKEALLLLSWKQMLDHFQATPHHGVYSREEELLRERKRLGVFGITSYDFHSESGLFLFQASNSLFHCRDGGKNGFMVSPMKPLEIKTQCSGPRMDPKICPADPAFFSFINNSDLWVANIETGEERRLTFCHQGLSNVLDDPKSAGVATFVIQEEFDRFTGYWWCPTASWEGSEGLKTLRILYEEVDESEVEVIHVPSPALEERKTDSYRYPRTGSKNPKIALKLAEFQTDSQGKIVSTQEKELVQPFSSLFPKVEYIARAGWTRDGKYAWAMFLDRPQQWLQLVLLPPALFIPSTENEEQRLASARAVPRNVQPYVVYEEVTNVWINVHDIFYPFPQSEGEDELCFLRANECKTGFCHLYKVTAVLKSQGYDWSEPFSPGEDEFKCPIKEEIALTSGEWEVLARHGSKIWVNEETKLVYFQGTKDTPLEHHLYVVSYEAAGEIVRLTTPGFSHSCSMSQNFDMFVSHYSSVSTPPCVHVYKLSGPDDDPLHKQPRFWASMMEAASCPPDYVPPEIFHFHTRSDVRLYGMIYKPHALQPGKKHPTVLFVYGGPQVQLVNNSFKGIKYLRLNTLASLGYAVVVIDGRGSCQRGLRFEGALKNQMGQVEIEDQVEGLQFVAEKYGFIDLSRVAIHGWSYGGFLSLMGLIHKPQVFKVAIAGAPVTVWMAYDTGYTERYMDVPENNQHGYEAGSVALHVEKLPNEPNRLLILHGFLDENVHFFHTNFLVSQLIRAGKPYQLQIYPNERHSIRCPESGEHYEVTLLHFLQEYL

The next data set deals with normal ICR mice. Kind of data set: In vivo glucose-decreasing activity, oral glucose load in normal mice. The settings on record: 3.0 mg/kg gavage; for AUC (area under curve of blood glucose): glucose load 60 min post-administration, x ± s. As to the method:
70 male clean-grade ICR mice with 20.0-24.0 g body weight were provided by Experimental Animal Center of Zhejiang University. Production license number of experimental animal: SCXK[zhe]2007-0039; Use license number of experimental animal: SYXK(zhe)2007-0098.
Feeding condition for animals: met the requirement for experimental facility of SPF grade animals, temperature at 20-25° C., humidity of 0-70%, illuminating condition was alternately 12 hours of brightness and 12 hours of darkness, ventilation rate was 10-20 times per hour, free access to water (city drinking water), illumination was 12 h/12 h of alternating light and dark at day and night respectively.
50 male clean-grade mice passing quarantine with 20.0-24.0 g body weight were randomly divided into 5 groups which included solvent control group, model group, compound dose group (3.0 mg/kg) respectively, 10 per group.
Mice in each group were fasted for 12 hours and then 0.08 mL blood was drawn by cutting tail. Serum was collected and used to determinating fasting blood glucose value. After drawing blood, mice in each dose group were administrated by gavage with different drug solution of corresponding dose and mice in solvent control and model group were administrated with distilled water of equal volume, wherein administration volume was 0.2 mL/10 g. 0.08 mL blood was drawn from each group at 60 minutes post-administration to determine the blood glucose value at 60 minutes post-administration. After drawing blood, […] glucose was administrated by gavage to each group except for solvent control group, wherein administration volume was 0.2 mL/10 g, and then blood was drawn at 20 min, 40 min, 60 min, 120 min after administration of glucose respectively, blood was centrifugated at 6000 rpm for 10 min to separate serum for determining the blood glucose value at each time point, area under curve of blood glucose was calculated on the basis of blood glucose concentration.

The next data set addresses DPP8 (Homo sapiens (Human), UniProt Q6V1X1). In words: Selectivity panel, recombinant dipeptidase inhibition (fluorescence substrate): DPP8. Type of data set: biochemical. The settings on record: for Selective ratio DPP8/DPPIV: ratio of IC50 values; for IC50: recombinant DPP8.
From the text: as §1

For another data set, the target named is FAP (Homo sapiens (Human), UniProt Q12884). In words: Selectivity panel, recombinant dipeptidase inhibition (fluorescence substrate): FAP. Type of data set: biochemical.
Chain of FAP (Q12884 whole entry): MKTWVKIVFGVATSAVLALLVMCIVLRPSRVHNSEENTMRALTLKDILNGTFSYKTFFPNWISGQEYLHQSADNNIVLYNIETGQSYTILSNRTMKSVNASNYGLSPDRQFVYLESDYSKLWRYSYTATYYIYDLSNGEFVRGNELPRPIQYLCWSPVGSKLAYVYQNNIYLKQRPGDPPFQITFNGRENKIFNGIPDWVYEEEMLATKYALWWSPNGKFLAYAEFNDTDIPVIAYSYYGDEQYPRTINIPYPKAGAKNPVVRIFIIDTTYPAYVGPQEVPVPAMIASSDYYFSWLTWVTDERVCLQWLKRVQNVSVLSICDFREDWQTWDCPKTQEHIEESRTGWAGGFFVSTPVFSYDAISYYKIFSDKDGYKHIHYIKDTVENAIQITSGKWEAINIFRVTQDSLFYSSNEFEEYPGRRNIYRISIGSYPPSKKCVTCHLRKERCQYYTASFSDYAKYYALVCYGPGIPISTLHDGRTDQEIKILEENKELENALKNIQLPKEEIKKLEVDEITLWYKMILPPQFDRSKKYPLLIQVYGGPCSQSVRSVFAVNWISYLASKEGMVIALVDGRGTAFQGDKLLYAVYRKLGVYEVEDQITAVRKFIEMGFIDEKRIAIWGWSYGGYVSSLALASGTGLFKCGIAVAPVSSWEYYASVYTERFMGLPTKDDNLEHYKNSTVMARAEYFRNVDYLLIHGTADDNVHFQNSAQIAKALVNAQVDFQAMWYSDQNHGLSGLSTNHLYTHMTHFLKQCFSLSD
From the text: as §1

The target of data set [2] is T1, DPPIV. In words: Selectivity panel, recombinant dipeptidase inhibition (fluorescence substrate): DPPIV. Type of data set: biochemical.
From the text: as §1

The nature of data set [3]: In vivo pharmacokinetic study in rats (gavage). Details: species or system SD rats. The note with it: 20 mg/kg gavage. As to the method:
12 healthy, male SD rats with 200-220 g body weight were assigned randomly to 3 groups (4 in each group), particular assignment was shown in the table below:
Rats were fasted for 12 h before test with free access to water and uniformly fed at 2 h after administration.
Time points of blood collecting and samples treatment: 0.3 mL blood was drawn through mice post-glomus venous plexus at 0.25, 0.5, 1.0, 2.0, 3.0, 4.0, 5.0, 7.0, 9.0 and 24 hours post-administration, placed in heparinized test tube, centrifuged at 3000 rpm/min for 10 minutes, separated plasma, frozen in refrigerator at −20° C. Unchanged drug concentration in plasma was determined by liquid chromatography-tandem mass spectrometry method.

[4] abbreviates: male, SD, rat, plasma, po, read-out: Cmax.
Setting [5] is: male, SD, rat, plasma, po, read-out: Tmax.

Chain of DPP8 (Q6V1X1 whole entry): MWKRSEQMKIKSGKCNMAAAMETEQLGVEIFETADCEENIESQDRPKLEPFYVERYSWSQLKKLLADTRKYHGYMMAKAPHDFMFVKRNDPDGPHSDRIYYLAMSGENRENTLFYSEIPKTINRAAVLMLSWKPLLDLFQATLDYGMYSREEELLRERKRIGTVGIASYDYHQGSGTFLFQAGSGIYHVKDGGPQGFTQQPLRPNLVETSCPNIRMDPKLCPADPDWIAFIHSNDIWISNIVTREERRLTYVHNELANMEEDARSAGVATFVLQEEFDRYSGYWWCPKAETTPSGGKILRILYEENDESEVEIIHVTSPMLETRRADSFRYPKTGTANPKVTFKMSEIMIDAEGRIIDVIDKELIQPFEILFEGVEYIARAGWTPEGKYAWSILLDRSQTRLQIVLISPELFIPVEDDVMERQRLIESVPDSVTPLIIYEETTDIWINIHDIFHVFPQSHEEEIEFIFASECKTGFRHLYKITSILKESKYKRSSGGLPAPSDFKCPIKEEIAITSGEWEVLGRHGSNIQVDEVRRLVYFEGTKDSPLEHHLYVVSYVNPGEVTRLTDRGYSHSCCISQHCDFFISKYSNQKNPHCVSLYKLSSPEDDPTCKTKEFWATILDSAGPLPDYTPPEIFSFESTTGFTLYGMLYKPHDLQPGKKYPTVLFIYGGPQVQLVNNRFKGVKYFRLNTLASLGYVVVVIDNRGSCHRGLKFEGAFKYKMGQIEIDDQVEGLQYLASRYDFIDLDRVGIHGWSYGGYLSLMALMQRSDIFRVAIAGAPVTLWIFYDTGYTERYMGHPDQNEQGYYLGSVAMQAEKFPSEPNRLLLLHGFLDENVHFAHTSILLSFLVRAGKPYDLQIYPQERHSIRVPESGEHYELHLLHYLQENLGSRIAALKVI

For `CN1C[C@@H]2CCN(C(=O)C[C@H](N)Cc3cc(F)c(F)cc3F)[C@@H]2C1` [Compound 1, (R)-3-amino-1-((3aS,6aS)-hexahydro-5-methylpyrrolo[3,4-b]pyrrol-1(2H)-yl)-4-(2,4,5-trifluorophenyl)butan-1-one fumarate], on DPPIV [1], the midpoint of inhibition, the IC50, lay at 22.8 ± 1.99 nM.

`CN(C)C(=O)N1C[C@@H]2CCN(C(=O)C[C@H](N)Cc3cc(F)c(F)cc3F)[C@@H]2C1` [Compound 3, (R)-3-amino-1-((3aS,6aS)-5-(N,N-dimethylaminoformyl)-hexahydropyrrolo[3,4-b]pyrrol-1(2H)-yl)-4-(2,4,5-trifluorophenyl)butane-1-one fumarate]: on DPPIV [1], the midpoint of inhibition, the IC50, lay at 17.7 ± 3.77 nM.

Take `CC(C)(F)C(=O)N1C[C@@H]2CCN(C(=O)C[C@H](N)Cc3cc(F)c(F)cc3F)[C@@H]2C1` [Compound 8, (R)-3-amino-1-((3aS,6aS)-5-(2-fluoro-2-methylpropionyl)-hexahydropyrrolo[3,4-b]pyrrol-1(2H)-yl)-4-(2,4,5-trifluorophenyl)butan-1-onefumarate]: on DPP9, the “Selective ratio DPP9/DPPIV” value is recorded as 322. For the same molecule, the IC50 on DPP9 is 3550 ± 1020 nM; at DPP8, 17600 ± 3610 nM; at FAP, 13500 ± 280 nM; against DPPIV [1] it was 11.2 ± 3.76 nM; at DPPIV [2] it was 11 nM. The “inhibition rate (blood glucose AUC)” value in the data set with normal ICR mice was determined as 63.0%. For the same molecule, the “AUC (area under curve of blood glucose)” value in the data set on normal ICR mice was determined as 129 ± 41 mmol·min/L. Moreover, the “Selective ratio DPP8/DPPIV” value at DPP8 was found to be 1602. In addition, the “AUC0−t” value in data set [3] came out at 2921 ngh/mL. Moreover, the half-life in data set [3] (male, SD, rat, plasma, po) is 2.29 h. Besides, in data set [3] (setting [4]), the Cmax came out at 933 ng/mL. In addition, the Tmax in data set [3] (setting [5]) was 1 h.

As to `N[C@@H](CC(=O)N1CC[C@H]2CN(C(=O)C3CC3)C[C@H]21)Cc1cc(F)c(F)cc1F` [Compound 12, (R)-3-amino-1-((3aS,6aS)-5-(cyclopropylcarbonyl)-hexahydropyrrolo[3,4-b]pyrrol-1(2H)-yl)-4-(2,4,5-trifluorophenyl)butan-1-one fumarate], the IC50 at DPPIV [1] came out at 25.9 ± 3.91 nM.

Regarding `N#CC1(C(=O)N2C[C@@H]3CCN(C(=O)C[C@H](N)Cc4cc(F)c(F)cc4F)[C@@H]3C2)CC1` [Compound 17, (R)-3-amino-1-((3aS,6aS)-5-(1-cyanocyclopropylcarbonyl)-hexahydropyrrolo[3,4-b]pyrrol-1(2H)-yl)-4-(2,4,5-trifluorophenyl)butan-1-one fumarate], the IC50 on DPPIV [1] came to 11.5 nM.

`CC(C)(C)C(=O)N1C[C@@H]2CCN(C(=O)C[C@H](N)Cc3cc(F)c(F)cc3F)[C@@H]2C1` [Compound 20, (R)-3-amino-1-((3aS,6aS)-5-(tertvaleryl)-hexahydropyrrolo[3,4-b]pyrrol-1(2H)-yl)-4-(2,4,5-trifluorophenyl)butan-1-one fumarate]: the “Selective ratio DPP9/DPPIV” value on DPP9 stood at 241. Also, the IC50 was 5550 ± 2520 nM on DPP9; 20900 ± 5630 nM on DPP8; 15900 ± 4720 nM on FAP; 23.2 ± 2.24 nM on DPPIV [1]; 23 nM on DPPIV [2]. Moreover, the “inhibition rate (blood glucose AUC)” value in the data set with normal ICR mice amounted to 38.3%. Moreover, the “AUC (area under curve of blood glucose)” value in the data set with normal ICR mice stood at 215 ± 44 mmol·min/L. Also, the “Selective ratio DPP8/DPPIV” value at DPP8 is listed as 907. In addition, the “AUC0−t” value in data set [3] stood at 2076 ngh/mL. This molecule also showed a half-life in data set [3] (male, SD, rat, plasma, po) of 2.45 h. For the same molecule, the Cmax in data set [3] (setting [4]) was 917 ng/mL. Moreover, the Tmax in data set [3] (setting [5]) amounted to 0.81 h.

Regarding `CS(=O)(=O)c1cccc(C(=O)N2C[C@@H]3CCN(C(=O)C[C@H](N)Cc4cc(F)c(F)cc4F)[C@@H]3C2)c1.O=C(O)/C=C/C(=O)O` [Compound 26, (R)-3-amino-1-((3aS,6aS)-5-(3-mesylbenzoyl)-hexahydropyrrolo[3,4-b]pyrrol-1(2H)-yl)-4-(2,4,5-trifluorophenyl)butan-1-one fumarate], on DPP9, the “Selective ratio DPP9/DPPIV” value amounted to 1311. Also, the IC50 on DPP9 was found to be 3450 ± 3470 nM; at DPP8, 15800 ± 7650 nM; on FAP, 11300 ± 4020 nM; at DPPIV [1] it was 2.61 ± 0.46 nM; at DPPIV [2] it was 2.6 nM. The “Selective ratio DPP8/DPPIV” value on DPP8 was 6057.

Regarding `N[C@@H](CC(=O)N1CCn2c(nnc2C(F)(F)F)C1)Cc1cc(F)c(F)cc1F` [Sitagliptin, reference compound], in the data set on normal ICR mice, the “inhibition rate (blood glucose AUC)” value is reported as 31.1% and the “AUC (area under curve of blood glucose)” value was 240 ± 24 mmol·min/L. Also, in data set [3], the “AUC0−t” value is listed as 1655 ngh/mL, the Cmax stood at 477 ng/mL, the T1/2 came out at 2.11 h and the Tmax is 0.44 h.
